Read-outs that look alike come from different tables or passages of the source.
Experiments:
[1] = target: T1, wild-type human ALK protein (cytoplasmic domain, amino acid 1058-1620) (Homo sapiens, UniProt Q9UM73); assay: Wild-type ALK kinase inhibition, Lance TR-FRET assay; type: biochemical
T1 construct: The cytoplasmic domain (amino acid 1058-1620) of wild-type human ALK protein; purchased Carna Biosciences, Inc (Japan)
Method: The cytoplasmic domain (amino acid 1058-1620) of wild-type human ALK protein expressed as N-terminal GST-fusion protein was purchased from Carna Biosciences, Inc (Japan). Mutated ALK proteins were expressed in SF9 insect cells with N-terminal tags cleaved after purification. Kinase activities of all enzymes were assessed using a Lance® TR-FRET assay kit from Perkin Elmer Life Sciences (Waltham, Mass.). 2.5 μL of compound solution and 5 μL of protein solution were added into a black low volume 384 well microtiter plate which was incubated for 30 minutes with gentle shaking at room temperature, followed by adding 2.5 μL of fluorescently labeled peptide substrate (ULight™-IRS-1 (Tyr983) Peptide) and ATP mixture solution. The kinase reaction was performed in 50 mM HEPES (pH 7.5) with 1 mM EGTA, 1 mM MgCl2, and 2 mM DTT, 0.01% Tween-20 added right before the assay. Final concentrations of ATP, substrates, and DMSO were 100 μM, 20 nM, and 0.5%, respectively. […] Final ALK concentrations were 1 nM, 1 nM, InM, 128 nM, 2 nM, and 4 nM for wild-type, F1174L, L1196M, S1206Y, G1269A, and G1202R, respectively. The reaction was allowed to perform for 90 minutes in dark with gentle shaking at room temperature after which 10 μL of 20 mM EDTA and 2 nM Eu-W1024 anti-phosphotyrosine antibody (PT66) mixture solution in the detection buffer from the manufacturer was added to terminate the reaction and detect the phosphorylation of the peptide substrate. The final mixture was incubated in the dark for 1 hour before the plate was read on a Tecan Infinite M-1000 multi-mode plate reader (Tecan, Durham N.C.) with an excitation wavelength of 320 nm. Emission intensities were measured at both 620 and 665 nm with the intensity ratio between 665 and 620 nm corresponding to the peptide substrate phosphorylation. IC50 values of inhibitors were obtained by fitting the ratio of 665/620 nm vs inhibitor concentrations in a sigmoidal dose-response curve (variable slope) with a non-linear regression.

H3122 cells (EML4-ALK) = assay: Cell growth inhibition assay (WST-8), H3122; type: cell-based; conditions: Homo sapiens, NCI-H3122, read-out: H3122 (nM) (EML4-ALK), 50% of cell growth inhibition (IC50), WST-8, versus DMSO control
Method: H3122 and Kappas-299 cells were purchased from American Type Culture Collection (Manassas, Va., USA) and were used within 2 months after initiating from original stocks. All cell lines were cultured as recommended. For cell growth inhibition assay, cells were treated with different concentrations of the tested compounds, diluted from stock to culture media containing a 0.2% DMSO as the final concentration. Cell viability was determined using the WST-8 cell proliferation assay kit (Dojindo Molecular Technologies) according to manufacturer's instructions. Three independent experiments in triplicates were performed.

ALK F1197M = target: T2, ALK F1197M (Homo sapiens, UniProt Q9UM73); assay: Mutant ALK kinase inhibition, F1197M; type: biochemical; conditions: Table 5
T2 construct: Mutated ALK proteins were expressed in SF9 insect cells with N-terminal tags cleaved after purification; fused on or other part: N-terminal tag, cleaved after purification

ALK G1269A = target: T3, ALK G1269A (Homo sapiens, UniProt Q9UM73, G1269A); assay: Mutant ALK kinase inhibition, Lance TR-FRET, G1269A; type: biochemical; conditions: Table 5; ATP 100 μM
T3 construct: made in house; host or cells: SF9 insect cells
Method: (§1) The cytoplasmic domain (amino acid 1058-1620) of wild-type human ALK protein expressed as N-terminal GST-fusion protein was purchased from Carna Biosciences, Inc (Japan). Mutated ALK proteins were expressed in SF9 insect cells with N-terminal tags cleaved after purification. Kinase activities of all enzymes were assessed using a Lance® TR-FRET assay kit from Perkin Elmer Life Sciences (Waltham, Mass.). 2.5 μL of compound solution and 5 μL of protein solution were added into a black low volume 384 well microtiter plate which was incubated for 30 minutes with gentle shaking at room temperature, followed by adding 2.5 μL of fluorescently labeled peptide substrate (ULight™-IRS-1 (Tyr983) Peptide) and ATP mixture solution. The kinase reaction was performed in 50 mM HEPES (pH 7.5) with 1 mM EGTA, 1 mM MgCl2, and 2 mM DTT, 0.01% Tween-20 added right before the assay. Final concentrations of ATP, substrates, and DMSO were 100 μM, 20 nM, and 0.5%, respectively. […] The final mixture was incubated in the dark for 1 hour before the plate was read on a Tecan Infinite M-1000 multi-mode plate reader (Tecan, Durham N.C.) with an excitation wavelength of 320 nm. Emission intensities were measured at both 620 and 665 nm with the intensity ratio between 665 and 620 nm corresponding to the peptide substrate phosphorylation. […]

ALK L1196M = target: T4, ALK L1196M (Homo sapiens, UniProt Q9UM73, L1196M); assay: Mutant ALK kinase inhibition, Lance TR-FRET, L1196M; type: biochemical; conditions: Table 5; ATP 100 μM
T4 construct: made in house; host or cells: SF9 insect cells
Method: as §1

ALK S1206Y = target: T5, ALK S1206Y (Homo sapiens, UniProt Q9UM73, S1206Y); assay: Mutant ALK kinase inhibition, Lance TR-FRET, S1206Y; type: biochemical; conditions: Table 5; ATP 100 μM
T5 construct: made in house; host or cells: SF9 insect cells
Method: as §1

ALK G1202R = ALK G1202R (Homo sapiens, UniProt Q9UM73, G1202R); assay: Mutant ALK kinase inhibition, Lance TR-FRET, G1202R; type: biochemical
Method: Mutated ALK proteins were expressed in SF9 insect cells with N-terminal tags cleaved after purification. […] The kinase reaction was performed in 50 mM HEPES (pH 7.5) with 1 mM EGTA, 1 mM MgCl2, and 2 mM DTT, 0.01% Tween-20 added right before the assay. […] The final mixture was incubated in the dark for 1 hour before the plate was read on a Tecan Infinite M-1000 multi-mode plate reader (Tecan, Durham N.C.) with an excitation wavelength of 320 nm.

ALK V1180L = ALK V1180L (Homo sapiens, UniProt Q9UM73, V1180L); assay: Cell based assay, ALK V1180L; set-up: key: + = active; −− = inactive; conditions: Table 5
ALK F1174L = ALK F1174L (Homo sapiens, UniProt Q9UM73, F1174L); assay: Cell based assay, ALK F1174L; set-up: key: + = active; −− = inactive; conditions: Table 5
LRRK2 = target: T6, LRRK2 (Homo sapiens, UniProt Q5S007); assay: KINOMEscan kinase panel, LRRK2; type: binding
T6 construct: purchased LeadHunter Discovery Services (currently DiscoverX Corporation), KINOMEscan screening service
From the text: (§2) Cpd. No. 5 was screened for its activity against a panel of human kinases using the KINOMEscan™ screening platform from LeadHunter Discovery Services (currently DiscoverX Corporation (Fremont, Calif. 94538, United States). See Table 7.

LRRK2(G2019S) = target: T7, LRRK2(G2019S) (Homo sapiens, UniProt Q5S007, G2019S); assay: KINOMEscan kinase panel, LRRK2(G2019S); type: binding
T7 construct: purchased LeadHunter Discovery Services (currently DiscoverX Corporation), KINOMEscan screening service
From the text: as §2

FER = target: T8, FER (Homo sapiens, UniProt P16591); assay: KINOMEscan kinase panel, FER; type: binding
T8 construct: purchased LeadHunter Discovery Services (currently DiscoverX Corporation), KINOMEscan screening service
From the text: as §2

FES = target: T9, FES (Homo sapiens, UniProt P07332); assay: KINOMEscan kinase panel, FES; type: binding
T9 construct: purchased LeadHunter Discovery Services (currently DiscoverX Corporation), KINOMEscan screening service
From the text: as §2

INSR = target: T10, INSR (Homo sapiens, UniProt P06213); assay: KINOMEscan kinase panel, INSR; type: binding
T10 construct: purchased LeadHunter Discovery Services (currently DiscoverX Corporation), KINOMEscan screening service
From the text: as §2

INSRR = target: T11, INSRR (Homo sapiens, UniProt P14616); assay: KINOMEscan kinase panel, INSRR; type: binding
T11 construct: purchased LeadHunter Discovery Services (currently DiscoverX Corporation), KINOMEscan screening service
From the text: as §2

Structure (SMILES): Cc1cc(Nc2ncc(Cl)c(Nc3ccccc3S(=O)(=O)C(C)C)n2)c(OC(C)C)cc1C1=CCN(C2CCOCC2)CC1 [Cpd. No. 5, 5-chloro-N2-(2-isopropoxy-5-methyl-4-(1-(tetrahydro-2H-pyran-4-yl)-1,2,3,6-tetrahydropyridin-4-yl)phenyl)-N4-(2-(isopropylsulfonyl)phenyl)pyrimidine-2,4-diamine]
- IC50 ([1]; Table 4, target not given, Cpd. No. 5 value equals WT ALK IC50 of Table 5, read-out: Inhibitory activity): 0.85 nM
- IC50 ([1]; Table 5, ATP 100 μM, read-out: IC50 (nM), WT): 0.85 nM
- IC50 (H3122 cells (EML4-ALK)): 27 nM
- IC50 (ALK F1197M): 3.3 nM
- IC50 (ALK G1269A): 4.3 nM
- IC50 (ALK L1196M): 0.73 nM
- IC50 (ALK S1206Y): 1.3 nM
- IC50 (ALK G1202R; Table 5, ATP 100 μM, read-out: IC50 (nM), G1202R): 9.2 nM
- IC50 (ALK G1202R; Table 6, comparison with known ALK inhibitors, read-out: G1202R IC50): 9.2 nM
- V1180L (c) (ALK V1180L): + (c)
- F1174L (c) (ALK F1174L): −− (c)
- Kd (LRRK2): 6.5 nM
- Kd (LRRK2(G2019S)): 6.6 nM
- Kd (FER): 11 nM
- Kd (FES): 12 nM
- Kd (INSR): 54 nM
- Kd (INSRR): 32 nM

Source: patent US10709705B2, “Aminopyrimidines as ALK inhibitors” (THE REGENTS OF THE UNIVERSITY OF MICHIGAN, priority 2016, dated 2020)
